Results reported in US5061794A, “Cephalosporin derivatives, and antibacterial agents” (priority 1986, dated 1991).
≈ marks a conversion by molar mass, not a printed value. Where two headings read alike, the source gives them in different places.

What was measured:
E. coli CSH(RE45) = experiment: microbe, parasite or virus in culture; assay type: cell-based; conditions: Escherichia coli, 16 h, read-out: Minimum Inhibitory Concentration (MIC), *E. coli CSH(RE45), lactamase-producing strain; 10^6 CFU/ml
In short: (§1)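 MICs (μg/ml) were read after 16 hours at 37°C. Test strains, grown overnight in Mueller Hinton broth, were spotted at 10^6 CFU/ml onto Mueller Hinton agar plates containing the compounds at a range of concentrations.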

E. coli CSH2 (RK1) = experiment: microbe, parasite or virus in culture; assay type: cell-based; conditions: Escherichia coli, 16 h, read-out: Minimum Inhibitory Concentration (MIC), *E. coli CSH2 (RK1), lactamase-producing strain; 10^6 CFU/ml
In short: as §1

E. cloacae 963 = experiment: in vitro antibacterial activity, agar plate dilution method (MIC); assay type: cell-based; conditions: 10^6 CFU/ml
In short: as §1

E. cloacae Nek 39 = experiment: as above; assay type: cell-based; conditions: Enterobacter cloacae, NEK39, 16 h, 10^6 CFU/ml
In short: as §1

E. coli GN5482 = experiment: as above; assay type: cell-based; conditions: Escherichia coli, GN5482, 16 h
In short: as §1

E. coli NIHJ JC2 = experiment: as above; assay type: cell-based; conditions: Escherichia coli, NIHJJC2, 16 h, read-out: Minimum Inhibitory Concentration (MIC), E. coli NIHJ JC2, 10^6 CFU/ml, 37° C.
In short: as §1

K. oxytoca GN10650 = experiment: as above; assay type: cell-based; conditions: Klebsiella oxytoca, 10^6 CFU/ml
In short: as §1

K. pneumoniae No. 42 = experiment: as above; assay type: cell-based; conditions: Klebsiella pneumoniae, 10^6 CFU/ml
In short: as §1

K. pneumoniae PCI-602 = experiment: as above; assay type: cell-based; conditions: Klebsiella pneumoniae, PCI602, 16 h, read-out: Minimum Inhibitory Concentration (MIC), K. pneumoniae PCI-602; 10^6 CFU/ml
In short: as §1

M. morganii GN5407 = experiment: as above; assay type: cell-based; conditions: Morganella morganii, 10^6 CFU/ml
In short: as §1

P. vulgaris HX-19 = experiment: as above; assay type: cell-based; conditions: Proteus vulgaris, HX19, 16 h, read-out: Minimum Inhibitory Concentration (MIC)
In short: as §1

P. vulgaris No. 33 = experiment: as above; assay type: cell-based; conditions: Proteus vulgaris, 10^6 CFU/ml
In short: as §1

S. aureus 209P NIHJ-JC1 = experiment: as above; assay type: cell-based; conditions: Staphylococcus aureus, 16 h
In short: as §1

S. marcescens IAM 1184 = experiment: as above; assay type: cell-based; conditions: Serratia marcescens, IAM1184, 16 h, S. marcescens IAM 1184; 10^6 CFU/ml; read-out: Minimum Inhibitory Concentration (MIC)
In short: as §1

S. marcescens No. 16-2 = experiment: as above; assay type: cell-based; conditions: Serratia marcescens, NO.162, 16 h
In short: as §1

Ps. aeruginosa AK 109 = experiment: as above; assay type: cell-based, Pseudomonas aeruginosa; conditions: Pseudomonas aeruginosa, AK109, 16 h
In short: as §1

Ps. aeruginosa AKR17 = experiment: as above; assay type: cell-based, Pseudomonas aeruginosa; conditions: Pseudomonas aeruginosa, 16 h; Ps. aeruginosa AKR17; 10^6 CFU/ml; read-out: Minimum Inhibitory Concentration (MIC)
In short: as §1

Ps. aeruginosa IF03445 = experiment: as above; assay type: cell-based, Pseudomonas aeruginosa; conditions: Pseudomonas aeruginosa, 10^6 CFU/ml
In short: as §1

Ps. cepacia 23 = experiment: as above; assay type: cell-based, Pseudomonas cepacia; conditions: read-out: Minimum Inhibitory Concentration (MIC)
In short: as §1

A. calcoaceticus No. 4 = experiment: as above; assay type: cell-based, Acinetobacter calcoaceticus; conditions: Acinetobacter calcoaceticus, NO.4, 16 h, 10^6 CFU/ml
In short: as §1

[1] = read-out: Minimum Inhibitory Concentration (MIC), *E. cloacae Nek 39, lactamase-producing strain
[2] = 16 h, *K. oxytoca GN10650, lactamase-producing strain, read-out: Minimum Inhibitory Concentration (MIC)
[3] = NO.42, 16 h, read-out: Minimum Inhibitory Concentration (MIC), *K. pneumoniae No. 42, lactamase-producing strain
[4] = GN5407, 16 h, read-out: Minimum Inhibitory Concentration (MIC), *M. morganii GN5407, lactamase-producing strain
[5] = NO.33, 16 h, read-out: Minimum Inhibitory Concentration (MIC), *P. vulgaris No. 33, lactamase-producing strain
[6] = IF03445, 16 h, read-out: Minimum Inhibitory Concentration (MIC), Ps. aeruginosa IF03445
[7] = Burkholderia cepacia, 16 h, Ps. cepacia 23, 10^6 CFU/ml
[8] = A. calcoaceticus No. 4, read-out: Minimum Inhibitory Concentration (MIC)
[9] = Enterobacter cloacae, 16 h, E. cloacae 963, read-out: Minimum Inhibitory Concentration (MIC)
[10] = read-out: Minimum Inhibitory Concentration (MIC)

| Structure (SMILES) | MIC (E. coli CSH(RE45)) | MIC (E. coli CSH2 (RK1)) | MIC (E. cloacae Nek 39; [1]) | MIC (E. coli NIHJ JC2) | MIC (K. oxytoca GN10650; [2]) | MIC (K. pneumoniae No. 42; [3]) | MIC (K. pneumoniae PCI-602) | MIC (M. morganii GN5407; [4]) | MIC (P. vulgaris HX-19; P. vulgaris HX-19, 10^6 CFU/ml) | MIC (P. vulgaris No. 33; [5]) | MIC (S. marcescens IAM 1184) | MIC (Ps. aeruginosa AKR17) | MIC (Ps. aeruginosa IF03445; [6]) | MIC (Ps. cepacia 23; [7]) | MIC (A. calcoaceticus No. 4; [8]) | MIC (E. cloacae 963; [9]) | MIC (E. coli GN5482; [10]) | MIC (S. aureus 209P NIHJ-JC1; [10]) | MIC (S. marcescens No. 16-2; [10]) | also measured |
| --- | --- | --- | --- | --- | --- | --- | --- | --- | --- | --- | --- | --- | --- | --- | --- | --- | --- | --- | --- | --- |
| Nc1nc(/C(=N/Oc2ccccc2)C(=O)N[C@@H]2C(=O)N3C(C(=O)O)=C(CSc4nnc(-c5ccc(O)c(O)c5)o4)CS[C@H]23)cs1 [Ex. 22, sodium 7β-[2-(2-aminothiazol-4-yl)2phenoxyiminoacetamido]-3-[5-(3,4-dihydroxyphenyl)-1,3,4-oxadiazol-2-yl]thiomethyl-3-cephem-4-carboxylate] | < 0.006 µg/mL | 0.0125 µg/mL | 0.05 µg/mL | 0.39 µg/mL | 100 µg/mL | 0.0125 µg/mL | < 0.006 µg/mL | 0.0125 µg/mL | < 0.006 µg/mL | 0.025 µg/mL | 0.05 µg/mL | > 100 µg/mL | 1.56 µg/mL | 0.025 µg/mL | 0.2 µg/mL |  |  |  |  | MIC (E. cloacae 963; Enterobacter cloacae, 963, 16 h, read-out: Minimum Inhibitory Concentration (MIC), E. cloacae 963): 0.025 µg/mL; MIC (E. coli GN5482; read-out: Minimum Inhibitory Concentration (MIC), *E. coli GN5482, lactamase-producing strain, 10^6 CFU/ml): 0.78 µg/mL; MIC (S. aureus 209P NIHJ-JC1; read-out: Minimum Inhibitory Concentration (MIC), S. aureus 209P NIHJ-JC1, 10^6 CFU/ml, 37° C., 16 hours): 0.78 µg/mL; MIC (S. marcescens No. 16-2; read-out: Minimum Inhibitory Concentration (MIC), *S. marcescens No. 16-2, lactamase-producing strain, 10^6 CFU/ml): 0.78 µg/mL; MIC (Ps. aeruginosa AK 109; read-out: Minimum Inhibitory Concentration (MIC), Ps. aeruginosa AK 109, 10^6 CFU/ml): 1.56 µg/mL |
| CON=C(C(=O)NC1C(=O)N2C(C(=O)O)=C(CSc3nc(C(=O)O)c(-c4ccc(O)c(O)c4)s3)CSC12)c1csc(N)n1 (stereo not drawn) [Ex. 52] | 0.05 µg/mL (≈ 0.0752 µM) | 0.0125 µg/mL (≈ 0.0188 µM) | 0.78 µg/mL (≈ 1.17 µM) | 0.39 µg/mL (≈ 0.587 µM) |  | 0.1 µg/mL (≈ 0.15 µM) | < 0.006 µg/mL | 0.1 µg/mL (≈ 0.15 µM) |  | 0.1 µg/mL (≈ 0.15 µM) | 0.1 µg/mL (≈ 0.15 µM) | > 100 µg/mL | 6.25 µg/mL (≈ 9.4 µM) | 0.025 µg/mL (≈ 0.0376 µM) |  | 0.1 µg/mL (≈ 0.15 µM) | 3.12 µg/mL (≈ 4.69 µM) | 12.5 µg/mL (≈ 18.8 µM) | 12.5 µg/mL (≈ 18.8 µM) | MIC (K. oxytoca GN10650; GN10650, 16 h, read-out: Minimum Inhibitory Concentration (MIC), *K. oxytoca GN10650, lactamase-producing strain): 6.25 µg/mL (≈ 9.4 µM); MIC (P. vulgaris HX-19): 0.0125 µg/mL (≈ 0.0188 µM); MIC (Ps. aeruginosa AK 109; [10]): 12.5 µg/mL (≈ 18.8 µM); MIC (A. calcoaceticus No. 4; read-out: Minimum Inhibitory Concentration (MIC), A. calcoaceticus No. 4): 0.39 µg/mL (≈ 0.587 µM) |
| CC(C)(O/N=C(\C(=O)N[C@@H]1C(=O)N2C(C(=O)O)=C(CSc3nnc(-c4ccccc4)s3)CS[C@H]12)c1csc(N)n1)C(=O)O [compound 6, disodium 7β-[2-(2-aminothiazol-4-yl)-(1-carboxylate-1-methylethoxyimino)acetamido]-3-(5-phenyl-1,3,4-thiadiazol-2-yl) thiomethyl-3-cephem-4carboxylate, reference compound] | 3.12 µg/mL | 3.12 µg/mL |  | 3.12 µg/mL | 6.25 µg/mL |  | 0.1 µg/mL |  | < 0.006 µg/mL |  | 1.56 µg/mL | > 100 µg/mL |  |  | 6.25 µg/mL | 6.25 µg/mL | 3.12 µg/mL | 3.12 µg/mL | 12.5 µg/mL | MIC (E. cloacae Nek 39; *E. cloacae Nek 39, lactamase-producing strain, read-out: Minimum Inhibitory Concentration (MIC)): 50 µg/mL; MIC (K. pneumoniae No. 42; 16 h, *K. pneumoniae No. 42, lactamase-producing strain, read-out: Minimum Inhibitory Concentration (MIC)): 6.25 µg/mL; MIC (M. morganii GN5407; 16 h, *M. morganii GN5407, lactamase-producing strain, read-out: Minimum Inhibitory Concentration (MIC)): 6.25 µg/mL; MIC (P. vulgaris No. 33; 16 h, *P. vulgaris No. 33, lactamase-producing strain, read-out: Minimum Inhibitory Concentration (MIC)): 0.39 µg/mL; MIC (Ps. aeruginosa AK 109; Ps. aeruginosa AK 109, 10^6 CFU/ml, read-out: Minimum Inhibitory Concentration (MIC)): 100 µg/mL; MIC (Ps. aeruginosa IF03445; 16 h, Ps. aeruginosa IF03445, read-out: Minimum Inhibitory Concentration (MIC)): 50 µg/mL; MIC (Ps. cepacia 23; Burkholderia cepacia, 23, 16 h): 12.5 µg/mL |
